Source: patent US9278958B2, “Anti-cancer compounds” (KATHOLIEKE UNIVERSITEIT LEUVEN, priority 2012, dated 2016)
Read-outs that look alike come from different tables or passages of the source.

Experiments:
[1] = test system: HT29 colorectal carcinoma cells; assay: Cytostatic assay, HT29; format: cell-based; conditions: Homo sapiens, HT-29; Table 3
Procedure, shortened: (§1)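 Proliferation under compound exposure was measured by counting cells (Coulter) after 48 h to 96 h at 37° C; the period varied with the line. Starting density was 5-7.5×10^4 cells per well in a humidified CO2 atmosphere.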

MT-2 cells = assay: Cytostatic assay, MT-2; format: cell-based; conditions: Homo sapiens, MT2; Table 2
Procedure, shortened: as §1

PLC/PRF/5 hepatoma cells = assay: Cytostatic assay, PLC/PRF/5; format: cell-based; conditions: Homo sapiens, Table 4
Procedure, shortened: as §1

[2] = test system: U87 CD4+/CXCR4+/CCR5+ glioma cells; assay: Cytostatic assay, U87 CD4+/CXCR4+/CCR5+; format: cell-based; conditions: Homo sapiens, Glioma cell; Table 3
Description: (§2) To each well of a 96-well microtiter plate were added 5-7.5×10^4 cells and a given amount of the test compound. The cells were allowed to proliferate for 48 h to 96 h (depending on the nature of the cell line) at 37° C. in a humidified CO2-controlled atmosphere. At the end of the incubation period, the cells were counted in a Coulter Counter (Coulter Electronics Ltd, Harpenden Herts, United Kingdom).

[3] = test system: PC-3 (UZ) prostate cancer cells; assay: Cytostatic assay, PC-3 (UZ); format: cell-based; conditions: Table 4
Procedure, shortened: as §1

[4] = test system: OST TK- osteosarcoma cells; assay: Cytostatic assay, OST TK-; format: cell-based; conditions: Homo sapiens; Table 3
Procedure, shortened: as §1

[5] = test system: protein synthesis in CEM cells; assay: Antimetabolic activity assay, [4,5-3H]leucine incorporation (protein synthesis), CEM; format: cell-based; conditions: Homo sapiens, CCRF-CEM, incorporation into TCA-insoluble material
Procedure, shortened: (§3)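 Cultures of 10^5 CEM cells receive 1 μCi tritiated precursor and graded compound concentrations (5-fold series). They grow for 20 hrs at 37° C, then cells are harvested onto filters for counting of acid-precipitable label.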

[6] = test system: RNA synthesis in CEM cells; assay: Antimetabolic activity assay, [5-3H]uridine incorporation (RNA synthesis), CEM; format: cell-based; conditions: Homo sapiens, CCRF-CEM, incorporation into TCA-insoluble material
Procedure, shortened: as §3

[7] = test system: Raji, human B-lymphoma cells; assay: Cytostatic assay, Raji; format: cell-based; conditions: Table 2
Procedure, shortened: as §1

[8] = test system: DNA synthesis in CEM cells; assay: Antimetabolic activity assay, [CH3-3H]dThd incorporation (DNA synthesis), CEM; format: cell-based; conditions: Homo sapiens, CCRF-CEM, incorporation into TCA-insoluble material
Procedure, shortened: as §3

[9] = test system: RNA synthesis in Raji cells; assay: Antimetabolic activity assay, [5-3H]uridine incorporation (RNA synthesis), Raji; format: cell-based; conditions: Homo sapiens, incorporation into TCA-insoluble material
[10] = test system: protein synthesis in Raji cells; assay: Antimetabolic activity assay, [4,5-3H]leucine incorporation (protein synthesis), Raji; format: cell-based; conditions: Homo sapiens, incorporation into TCA-insoluble material
U87 glioma cells = assay: Cytostatic assay, U87; format: cell-based; conditions: Homo sapiens, U-87 MG; Table 3
Procedure, shortened: as §1

[11] = test system: HL60, human leukemia cells; assay: Cytostatic assay, HL-60; format: cell-based; conditions: Table 2
Procedure, shortened: as §1

[12] = test system: Caki-1 kidney carcinoma cells; assay: Cytostatic assay, Caki-1; format: cell-based; conditions: Homo sapiens, Table 3
Procedure, shortened: as §1

MT-4 cells = assay: Cytostatic assay, MT-4; format: cell-based; conditions: Homo sapiens, MT4; Table 2
Procedure, shortened: as §1

L1210 cells = assay: Cytostatic assay, L1210; format: cell-based; conditions: Mus musculus, Table 2
Procedure, shortened: as §1

[13] = test system: FM3A mammary carcinoma cells; assay: Cytostatic assay, FM3A; format: cell-based, murine; conditions: Mus musculus, Table 3
Procedure, shortened: as §1

Molt4/C8 cells = assay: Cytostatic assay, Molt4/C8; format: cell-based; conditions: Table 2
Procedure, shortened: as §1

BPH-1 (UZ) = assay: Cytostatic assay, BPH-1 (UZ); format: cell-based; conditions: Homo sapiens, Table 4
Procedure, shortened: as §1

CEM cells = assay: Cytostatic assay, CEM; format: cell-based; conditions: Homo sapiens, CCRF-CEM
Procedure, shortened: as §1

HepG2C3A hepatoma cells = assay: Cytostatic assay, HepG2C3A; format: cell-based; conditions: Homo sapiens, HepG2/C3A; Table 4
Procedure, shortened: as §1

[14] = test system: HEL embryonic lung fibroblast cells; assay: Cytostatic assay, HEL; format: cell-based; conditions: Homo sapiens, Table 3
Procedure, shortened: as §1

[15] = test system: Daudi, human B-lymphoma cells; assay: Cytostatic assay, Daudi; format: cell-based; conditions: Table 2
Description: as §2

C8166 cells = assay: Cytostatic assay, C8166; format: cell-based; conditions: Homo sapiens, Table 2
Procedure, shortened: as §1

[16] = test system: PNT1A (UZ) prostate cells; assay: Cytostatic assay, PNT1A (UZ); format: cell-based; conditions: Homo sapiens, Table 4
Procedure, shortened: as §1

[17] = test system: THP-1, human monocytic cells; assay: Cytostatic assay, THP-1; format: cell-based; conditions: Table 2
Procedure, shortened: as §1

[18] = test system: BAEC aortic endothelial cells; assay: Cytostatic assay, BAEC; format: cell-based, bovine; conditions: Bos taurus, Table 3
Procedure, shortened: as §1

[19] = test system: HOS CD4+ osteosarcoma cells; assay: Cytostatic assay, HOS CD4+; format: cell-based; conditions: Homo sapiens; Table 3
Description: as §2

[20] = test system: U937, human monocytic cells; assay: Cytostatic assay, U937; format: cell-based; conditions: U-937, Table 2
Procedure, shortened: as §1

[21] = test system: 293T embryonic kidney cells; assay: Cytostatic assay, 293T; format: cell-based; conditions: Homo sapiens, HEK-293T; Table 3
Procedure, shortened: as §1

HUT-78 cells = assay: Cytostatic assay, HUT-78; format: cell-based; conditions: Homo sapiens, HuT78; Table 2
Procedure, shortened: as §1

[22] = test system: DU145 (UZ) prostate cancer cells; assay: Cytostatic assay, DU145 (UZ); format: cell-based; conditions: Homo sapiens, DU-145; Table 4
Procedure, shortened: as §1

Sup T1 cells = assay: Cytostatic assay, Sup T1; format: cell-based; conditions: Homo sapiens, Table 2, read-out: Cytostatic activity (μM) Sup T 1
Procedure, shortened: as §1

[23] = test system: Caki-2 kidney carcinoma cells; assay: Cytostatic assay, Caki-2; format: cell-based; conditions: Homo sapiens, Table 3
Procedure, shortened: as §1

Huh-7 hepatoma cells = assay: Cytostatic assay, Huh-7; format: cell-based; conditions: Homo sapiens, Table 4
Procedure, shortened: as §1

[24] = test system: MCF-7 mammary carcinoma cells; assay: Cytostatic assay, MCF-7; format: cell-based; conditions: Homo sapiens, MCF7; Table 3
Procedure, shortened: as §1

[25] = test system: LNCaP (UZ) prostate cancer cells; assay: Cytostatic assay, LNCaP (UZ); format: cell-based; conditions: Homo sapiens, Table 4
Procedure, shortened: as §1

[26] = test system: PC3 (rega) prostate cancer cells; assay: Cytostatic assay, PC3 (rega); format: cell-based; conditions: Table 4
Procedure, shortened: as §1

[27] = test system: HeLa cervix carcinoma cells; assay: Cytostatic assay, HeLa; format: cell-based, human; conditions: Homo sapiens; Table 3; read-out: Cytostatic activity (μM) Hela
Procedure, shortened: as §1

[28] = test system: broad variety of tumor cell lines; assay: Cytostatic assays, summary over the panel of cell lines (Tables 2-4); format: cell-based
Procedure, shortened: as §1

[29] = test system: 22Rv1 (UZ) prostate cancer cells; assay: Cytostatic assay, 22Rv1 (UZ); format: cell-based; conditions: Homo sapiens, Table 4
Procedure, shortened: as §1

[30] = test system: DNA synthesis in Raji cells; assay: Antimetabolic activity assay, [CH3-3H]dThd incorporation (DNA synthesis), Raji; format: cell-based; conditions: Homo sapiens, incorporation into TCA-insoluble material

With COC(=O)c1cc(CCc2ccsc2)sc1N [TR595, 2-Amino-5-(2-thiophen-3-yl-ethyl)-thiophene-3-carboxylic acid methyl ester] as the molecule, how does the IC50 [1] read?
Its IC50 is 30 ± 5.7 µM.

And the IC50 (MT-2 cells)?
Its IC50 is 0.57 ± 0.078 µM.

And the IC50 (PLC/PRF/5 hepatoma cells)?
Its IC50 is 28 ± 2.8 µM.

And the IC50 [2]?
The IC50 was 51 ± 4.9 µM.

What about the IC50 [3] of the same molecule?
The IC50 was 0.6 ± 0.071 µM.

And the IC50 [4]?
Its IC50 is 8.2 ± 6.9 µM.

And the IC50 [5]?
The IC50 was 0.66 ± 0.13 µM.

And the IC50 [6]?
The IC50 was 1.9 ± 0.7 µM.

And the IC50 [7]?
The IC50 was 46 ± 1.4 µM.

What about the IC50 [8] of the same molecule?
Its IC50 is 3.2 ± 1.2 µM.

And the IC50 [9]?
The IC50 was 27 ± 14 µM.

And the IC50 [10]?
Its IC50 is 43 ± 7 µM.

And the IC50 (U87 glioma cells)?
Its IC50 is 51 ± 2.1 µM.

What about the IC50 [11] of the same molecule?
Its IC50 is 6.1 ± 8.6 µM.

And the IC50 [12]?
Its IC50 is 2.3 ± 0.14 µM.

And the IC50 (MT-4 cells)?
The IC50 was 30 ± 4.9 µM.

And the IC50 (L1210 cells)?
Its IC50 is 41 ± 2 µM.

What about the IC50 [13] of the same molecule?
The IC50 was 50 ± 2.8 µM.

What about the IC50 (Molt4/C8 cells) of the same molecule?
The IC50 was 0.56 ± 0.57 µM.

What about the IC50 (BPH-1 (UZ)) of the same molecule?
Its IC50 is 46 ± 4.9 µM.

And the IC50 (CEM cells; Table 1a, read-out: IC50 μM (CEM))?
Its IC50 is 1.7 µM.

And the IC50 (CEM cells; Table 2, read-out: Cytostatic activity (μM) CEM)?
The IC50 was 1.7 ± 1.1 µM.

And the IC50 (HepG2C3A hepatoma cells)?
Its IC50 is 8.1 ± 0.71 µM.

And the IC50 [14]?
Its IC50 is 30 ± 13 µM.

What about the IC50 [15] of the same molecule?
The IC50 was 37 ± 3.5 µM.

What about the IC50 (C8166 cells) of the same molecule?
The IC50 was 2.2 ± 0.35 µM.

And the IC50 [16]?
Its IC50 is 40 ± 7.1 µM.

What about the IC50 [17] of the same molecule?
The IC50 was 41 ± 2.8 µM.

What about the IC50 [18] of the same molecule?
The IC50 was 27 ± 7.1 µM.

What about the IC50 [19] of the same molecule?
Its IC50 is 50 ± 12 µM.

And the IC50 [20]?
The IC50 was 42 ± 3.5 µM.

What about the IC50 [21] of the same molecule?
The IC50 was 44 ± 5.7 µM.

And the IC50 (HUT-78 cells)?
The IC50 was 38 ± 8.5 µM.

And the IC50 [22]?
The IC50 was 15 ± 8.5 µM.

And the IC50 (Sup T1 cells)?
The IC50 was 1.3 ± 0.21 µM.

And the IC50 [23]?
Its IC50 is 45 ± 7.1 µM.

What about the IC50 (Huh-7 hepatoma cells) of the same molecule?
The IC50 was 1.3 ± 0.28 µM.

And the IC50 [24]?
Its IC50 is 25 ± 11 µM.

And the IC50 [25]?
The IC50 was 0.38 ± 0.1 µM.

And the IC50 [26]?
Its IC50 is 0.25 ± 0.27 µM.

What about the IC50 [27] of the same molecule?
The IC50 was 36 ± 7 µM.

And the IC50 ([28]; Homo sapiens, HuT78, range for the seven compounds, MT-4 and HUT-78 cells, read-out: IC50 range, cytostatic activity against MT-4 and HUT-78 cells)?
The IC50 was 8.5 to 60 µM.

What about the IC50 ([28]; range for the seven compounds against the 5 tumor cell lines, read-out: IC50 range, cytostatic activity against CEM, Molt4/C8, Sup T1, MT-2 and C8166 cells) of the same molecule?
The IC50 was 0.22 to 3.4 µM.

And the IC50 [29]?
Its IC50 is 22 ± 9.2 µM.

And the IC50 [30]?
Its IC50 is 39 ± 33 µM.
